PubChem BioAssay (NCI)
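How tested: cells in 96-well plates exposed to compound for 48 hours at five concentrations. Definition used: TGI = concentration required for complete inhibition of growth.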

Legend:
Test in all cases: NCI tumour cell line growth inhibition, 48 h
XF 498 CNS = system: XF 498 CNS
HOP-18 NSCLC = system: HOP-18 NSCLC
DMS 114 small cell lung = system: DMS 114 small cell lung
SNB-78 CNS = system: SNB-78 CNS
SN12K1 renal = system: SN12K1 renal
KM20L2 colon = system: KM20L2 colon
P388 leukemia = system: P388 leukemia
P388/ADR leukemia = system: P388/ADR leukemia
DLD-1 colon = system: DLD-1 colon
RXF-631 renal = system: RXF-631 renal

With c1cnc2c(c1)-n1cccc1C1(CCCCC1)NN2 the TGI (XF 498 CNS) was greater than 100 µM, the TGI (HOP-18 NSCLC) was greater than 100 µM and the TGI (DMS 114 small cell lung) was greater than 100 µM.

For CC(C)CCCC(C)[C@H]1CCC(C2C[C@@H](O)[C@@H]3CC(O)[C@@H](O)C[C@]3(CO)C2=O)[C@]1(C)CCO (stereo not given in full), the TGI (SNB-78 CNS) was 85.5 µM, the TGI (XF 498 CNS) was greater than 59.6 µM and the TGI (HOP-18 NSCLC) was 47.7 µM. For the same compound, the TGI (SN12K1 renal) was 37.4 µM, the TGI (KM20L2 colon) was 38.5 µM and the TGI (P388 leukemia) was 49.5 µM. It also gave a TGI (P388/ADR leukemia) greater than 88.7 µM, a TGI (DLD-1 colon) greater than 100 µM and a TGI (DMS 114 small cell lung) of 39.7 µM.

CC(=O)C(=Cc1cn(C)c(=O)n(C)c1=O)C(C)=O gave a TGI (SNB-78 CNS) of 600 µM, a TGI (XF 498 CNS) of 78.1 µM and a TGI (HOP-18 NSCLC) of 456 µM. It also gave a TGI (SN12K1 renal) of 228 µM, a TGI (KM20L2 colon) of 230 µM and a TGI (P388 leukemia) of 240 µM. For the same compound, the TGI (P388/ADR leukemia) was 392 µM, the TGI (DLD-1 colon) was 222 µM and the TGI (DMS 114 small cell lung) was 227 µM.

C[s+]1c2ccccc2c2ccccc21 gave a TGI (SNB-78 CNS) greater than 100 µM, a TGI (XF 498 CNS) greater than 100 µM and a TGI (KM20L2 colon) greater than 100 µM.

O=C(c1ccccc1)C1N=NN(Cc2ccccc2[N+](=O)[O-])C1C(=O)c1ccccc1 (stereo not given) was tested, and the TGI (SNB-78 CNS) was greater than 100 µM, the TGI (HOP-18 NSCLC) was greater than 100 µM and the TGI (KM20L2 colon) was greater than 100 µM. It also gave a TGI (DLD-1 colon) greater than 100 µM and a TGI (DMS 114 small cell lung) greater than 100 µM.

Cc1cc(=O)[nH]c(NNC(C#N)c2cccc([N+](=O)[O-])c2)n1 (stereo not given) was tested, and the TGI (SNB-78 CNS) was greater than 100 µM, the TGI (HOP-18 NSCLC) was greater than 100 µM and the TGI (KM20L2 colon) was greater than 100 µM. It also gave a TGI (DLD-1 colon) greater than 100 µM and a TGI (DMS 114 small cell lung) greater than 100 µM.

Compound N#C/C(=C\c1ccc2[nH]ccc2c1)C(=O)NCCCCNC(=O)/C(C#N)=C/c1ccc2[nH]ccc2c1 has a TGI (SNB-78 CNS) greater than 100 µM, a TGI (XF 498 CNS) greater than 100 µM and a TGI (KM20L2 colon) greater than 100 µM. The TGI (DLD-1 colon) was greater than 100 µM and the TGI (DMS 114 small cell lung) was greater than 100 µM.

Compound C=CCC(O[Si](C)(C)C(C)(C)C)c1cc(O[Si](C)(C)C(C)(C)C)ccc1OC (stereo not given) has a TGI (SNB-78 CNS) greater than 100 µM, a TGI (XF 498 CNS) greater than 100 µM and a TGI (HOP-18 NSCLC) greater than 100 µM. For the same compound, the TGI (SN12K1 renal) was greater than 100 µM, the TGI (KM20L2 colon) was greater than 100 µM and the TGI (P388 leukemia) was greater than 100 µM. It also gave a TGI (P388/ADR leukemia) greater than 100 µM, a TGI (DLD-1 colon) greater than 100 µM and a TGI (DMS 114 small cell lung) greater than 100 µM.

Cc1nnc2n1N=C(c1ccccc1)C(c1ccccc1)S2 (stereo not given) showed a TGI (SNB-78 CNS) greater than 100 µM, a TGI (XF 498 CNS) greater than 100 µM and a TGI (HOP-18 NSCLC) greater than 100 µM. The TGI (KM20L2 colon) was 76.3 µM, the TGI (DLD-1 colon) was greater than 100 µM and the TGI (DMS 114 small cell lung) was 52.4 µM.

Compound NC(=O)CCC(N=c1c2ccccc2n(O)c2ccccc12)C(=O)O (stereo not given) has a TGI (SNB-78 CNS) greater than 100 µM, a TGI (HOP-18 NSCLC) of 98.4 µM and a TGI (KM20L2 colon) greater than 100 µM. For the same compound, the TGI (DLD-1 colon) was greater than 100 µM and the TGI (DMS 114 small cell lung) was greater than 100 µM.

Work on CC1=C(CO)C(=O)OC(C(C)C2CCC3C4CC5OC56C(O)C(N5CC5)=CC(=O)C6(C)C4CCC23C)C1 (stereo not given) yielded a TGI (SNB-78 CNS) of 46.9 µM, a TGI (XF 498 CNS) of 16.4 µM and a TGI (KM20L2 colon) of 9.87 µM. It also gave a TGI (RXF-631 renal) of 34.5 µM, a TGI (DLD-1 colon) of 17.6 µM and a TGI (DMS 114 small cell lung) of 5.85 µM.

Compound N#Cc1ccccc1NC(=O)C(=O)C(C(=O)c1ccccc1F)C1OC(=O)c2ccccc21 (stereo not given) has a TGI (SNB-78 CNS) of 90.2 µM, a TGI (XF 498 CNS) greater than 100 µM and a TGI (KM20L2 colon) greater than 100 µM. For the same compound, the TGI (DLD-1 colon) was greater than 100 µM and the TGI (DMS 114 small cell lung) was greater than 100 µM.
